According to article PMC7313537 (PLoS ONE, 2020):

How the values were obtained:
LRRK2 = LRRK2 (Homo sapiens, UniProt Q5S007); assay: Enzyme selectivity panel; assay type: biochemical; details: 1 mM ATP
Procedure: (§1) The kinase assays were carried out at room temperature in HEPES 50 mM, pH 7.0, NaN3 0.02%, BSA 0.01%, Orthovanadate 0.1 mM, DTT 1 mM, MgCl2 10 mM in a final volume of 10 µL. Test compounds were transferred to the plate wells by ECHO liquid handler (Labcyte, San Jose, CA) with 0.5% dimethyl sulfoxide (DMSO) in the final assay. Peptide/kinase mixtures were diluted in the appropriate enzymatic buffer and 5µL of the mixture was added to a 384-well small volume black plate. Reactions were initiated by the addition of 5 µL ATP in reaction buffer, the final reaction mixture consisted of 500 nM peptide substrate, 1 mM ATP, and appropriate amount of specific kinase. […] The plates were then sealed and centrifuged at 1800 rpm for 2 minutes. […] Half maximal inhibitory concentration (IC50) determination was performed by fitting the curve of percent control activity versus the log of the compound concentration using the GraphPad Prism 6.0 software.

ERBB4 = ERBB4 (Homo sapiens, UniProt Q15303); assay: Enzyme selectivity panel; assay type: biochemical; details: 1 mM ATP
Procedure: as §1

IKKA = IKKA (Homo sapiens, UniProt O15111); assay: Enzyme selectivity panel; assay type: biochemical; details: 1 mM ATP
Procedure: as §1

Pharmacokinetic analyses = assay type: in vivo, Sprague Dawley rats; details: male rat
Procedure: The i.v. formulation in rats was 5% dimethylacetamide (DMAC) and 25% sulfobutyl ether β-cyclodextrin in acidified saline (pH 3). The i.v. formulation in dogs and monkeys was 5% DMAC and 20% sulfobutyl ether β-cyclodextrin in saline. The oral formulation in all species was 5% DMAC in 0.5% methylcellulose aqueous solution. For rats, blood samples were collected at predose, 5 (i.v. dosing only), 15, and 30 minutes, and 1, 2, 4, 6, 8, and 24 hours. For dogs, blood samples were collected at predose, 2.5 and 5 (i.v. dosing only), 15, and 30 minutes, and 1, 2, 3, 4, 6, 8, 12, and 24 hours postdose. For monkeys, blood samples were collected at predose, 5 and 10 (i.v. dosing only), 15, and 30 minutes, and 1, 2, 3, 4, 6, 8, 12, 16, and 24 hours postdose. Collected blood samples were processed to extract plasma by centrifugation and stored at −20 °C until analysis.
The plasma was protein precipitated and the diluted supernatant was analyzed using LC/MS/MS. A standard curve was prepared in plasma from 1 to 5,000 nM and processed in the same manner as the samples. The pharmacokinetic parameters were determined using WinNonLin 6.3.

RSK2 = RSK2 (Homo sapiens, UniProt P51812); assay: Enzyme selectivity panel; assay type: biochemical; details: 1 mM ATP
Procedure: as §1

PKCD = PKCD (Homo sapiens, UniProt Q05655); assay: Enzyme selectivity panel; assay type: biochemical; details: 1 mM ATP
Procedure: as §1

TIE2 = TIE2 (Homo sapiens, UniProt Q02763); assay: Enzyme selectivity panel; assay type: biochemical; details: 1 mM ATP
Procedure: as §1

PAK4 = PAK4 (Homo sapiens, UniProt O96013); assay: Enzyme selectivity panel; assay type: biochemical; details: 1 mM ATP
Procedure: as §1

AXL = molecular target: T1, AXL (Homo sapiens, UniProt P30530); assay: Enzyme selectivity panel; assay type: biochemical; details: 1 mM ATP
T1 construct: purchased In-house HTRF panel (56 kinases) and PerkinElmer (161-kinase panel)
Procedure: as §1

[1] = system: KATO III (gastric cancer); assay: Cell viability assay (CellTiter-Glo); assay type: cell-based; details: Homo sapiens, FGFR2 amplification, 72 hours, read-out: Mean GI50 ± S.D.
UMUC3 = assay: Cell viability assay (CellTiter-Glo); assay type: cell-based; details: Homo sapiens, Bladder, lacking FGFR alterations
SGK3 = SGK3 (Homo sapiens, UniProt Q96BR1); assay: Enzyme selectivity panel; assay type: biochemical; details: 1 mM ATP
Procedure: as §1

[2] = Preclinical safety studies; assay type: in vivo
CHEK1 = CHEK1 (Homo sapiens, UniProt O14757); assay: Enzyme selectivity panel; assay type: biochemical; details: 1 mM ATP
Procedure: as §1

MSSK1 = MSSK1 (Homo sapiens, UniProt Q9UPE1); assay: Enzyme selectivity panel; assay type: biochemical; details: 1 mM ATP
Procedure: as §1

FAK = FAK (Homo sapiens, UniProt Q05397); assay: Enzyme selectivity panel; assay type: biochemical; details: 1 mM ATP
Procedure: as §1

[3] = system: VEGF-induced growth of human umbilical vein endothelial cells (HUVEC); assay: HUVEC proliferation stimulated with VEGF; assay type: cell-based
Excerpt: S2 Figure. […] Directly. An assay was developed to evaluate the proliferation of human umbilical vein endothelial cells (HUVEC) when stimulated with basic FGF (b-FGF) or VEGF.

IKKB = IKKB (Homo sapiens, UniProt O14920); assay: Enzyme selectivity panel; assay type: biochemical; details: 1 mM ATP
Procedure: as §1

BTK = BTK (Homo sapiens, UniProt Q06187); assay: Enzyme selectivity panel; assay type: biochemical; details: 1 mM ATP
Procedure: as §1

KG1 = assay: Cell viability assay (CellTiter-Glo); assay type: cell-based; details: Homo sapiens; KG1, parental line to KG1a
MAPKAPK2 = MAPKAPK2 (Homo sapiens, UniProt P49137); assay: Enzyme selectivity panel; assay type: biochemical; details: 1 mM ATP
Procedure: as §1

A549 = assay: Cell viability assay (CellTiter-Glo); assay type: cell-based; details: Homo sapiens, Lung cancer, lacking FGFR alterations
CDK2 = CDK2 (Homo sapiens, UniProt P24941); assay: Enzyme selectivity panel; assay type: biochemical; details: 1 mM ATP
Procedure: as §1

[4] = Plasma protein binding (equilibrium dialysis); assay type: in vitro ADME, cynomolgus monkey; details: pH 7.4, monkey plasma, read-out: PPB (% free)
Procedure: The final DMSO content in all cases was <0.1%. Each condition was incubated in duplicate. For protein binding determination, the Multi-Equilibrium Dialyzer System™ and diachema membranes from Harvard Apparatus (Holliston, MA) were utilized. Equilibrium dialysis was carried out in Teflon cells separated by a dialysis membrane with a molecular weight cutoff of 10,000 Daltons. […] The cells were rotated at a speed of 12 rpm in a 37°C water bath for 2 hours. Following the incubation period, buffer and serum/plasma samples were drained separately into empty preweighed glass test tubes. The tubes were reweighed, and the exact volume of sample recovered from each side of the dialysis cell was calculated using the mass. A 75-μL aliquot of each sample (buffer or serum/plasma) was added to a 96-well plate containing a protein precipitation solution of 100% methanol and 0.2 μM dextrorphan as the internal standard; 75 μL of blank buffer or plasma/serum was added to the plate to ensure identical composition across all samples. Prior to analysis, samples prepared in the 96-well plate were vigorously vortexed for approximately 5 minutes and centrifuged for 10 minutes at ~1700 × g to remove denatured proteins and particulate matter. The supernatant was transferred and analyzed using LC-MS/MS.

KMS-11 (myeloma) = assay: Cell viability assay (CellTiter-Glo); assay type: cell-based; details: Homo sapiens, IgH-FGFR3 translocation, 72 hours, read-out: Mean GI50 ± S.D.
PRKAA1 = PRKAA1 (Homo sapiens, UniProt Q13131); assay: Enzyme selectivity panel; assay type: biochemical; details: 1 mM ATP
Procedure: as §1

TRKA = TRKA (Homo sapiens, UniProt P04629); assay: Enzyme selectivity panel; assay type: biochemical; details: 1 mM ATP
Procedure: as §1

[5] = Sprague Dawley, plasma, oral 2 mg/kg

Chain of TIE2 (Q02763 23-1124, species assumed): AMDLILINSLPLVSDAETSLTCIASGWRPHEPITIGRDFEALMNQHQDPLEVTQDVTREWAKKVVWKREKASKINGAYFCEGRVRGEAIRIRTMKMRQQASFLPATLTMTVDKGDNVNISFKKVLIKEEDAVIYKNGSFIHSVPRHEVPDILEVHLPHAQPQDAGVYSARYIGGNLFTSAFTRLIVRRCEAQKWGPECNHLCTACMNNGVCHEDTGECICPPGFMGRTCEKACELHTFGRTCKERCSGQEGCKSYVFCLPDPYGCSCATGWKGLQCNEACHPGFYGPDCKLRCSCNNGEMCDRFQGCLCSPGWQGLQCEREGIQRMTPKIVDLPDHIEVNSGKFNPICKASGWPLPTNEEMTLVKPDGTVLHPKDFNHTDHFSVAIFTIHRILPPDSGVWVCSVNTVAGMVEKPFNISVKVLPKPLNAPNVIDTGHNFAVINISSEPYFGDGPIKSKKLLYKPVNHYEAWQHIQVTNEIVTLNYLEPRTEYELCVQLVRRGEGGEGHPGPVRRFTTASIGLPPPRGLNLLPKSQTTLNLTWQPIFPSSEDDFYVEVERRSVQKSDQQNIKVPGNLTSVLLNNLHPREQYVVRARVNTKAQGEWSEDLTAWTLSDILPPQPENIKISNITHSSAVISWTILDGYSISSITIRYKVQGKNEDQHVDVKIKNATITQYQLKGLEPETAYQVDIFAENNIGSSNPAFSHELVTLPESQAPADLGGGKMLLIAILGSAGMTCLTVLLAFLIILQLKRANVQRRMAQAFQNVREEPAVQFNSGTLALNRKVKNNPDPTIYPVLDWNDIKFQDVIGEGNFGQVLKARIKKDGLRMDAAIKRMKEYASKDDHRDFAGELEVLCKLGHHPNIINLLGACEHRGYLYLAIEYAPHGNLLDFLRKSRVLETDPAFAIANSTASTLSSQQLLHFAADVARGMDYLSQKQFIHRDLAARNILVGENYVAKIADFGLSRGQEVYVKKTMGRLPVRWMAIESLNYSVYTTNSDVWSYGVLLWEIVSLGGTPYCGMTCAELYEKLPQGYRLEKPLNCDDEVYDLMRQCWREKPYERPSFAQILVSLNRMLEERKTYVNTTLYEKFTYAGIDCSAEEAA
Chain of SGK3 (Q96BR1 whole entry, species assumed): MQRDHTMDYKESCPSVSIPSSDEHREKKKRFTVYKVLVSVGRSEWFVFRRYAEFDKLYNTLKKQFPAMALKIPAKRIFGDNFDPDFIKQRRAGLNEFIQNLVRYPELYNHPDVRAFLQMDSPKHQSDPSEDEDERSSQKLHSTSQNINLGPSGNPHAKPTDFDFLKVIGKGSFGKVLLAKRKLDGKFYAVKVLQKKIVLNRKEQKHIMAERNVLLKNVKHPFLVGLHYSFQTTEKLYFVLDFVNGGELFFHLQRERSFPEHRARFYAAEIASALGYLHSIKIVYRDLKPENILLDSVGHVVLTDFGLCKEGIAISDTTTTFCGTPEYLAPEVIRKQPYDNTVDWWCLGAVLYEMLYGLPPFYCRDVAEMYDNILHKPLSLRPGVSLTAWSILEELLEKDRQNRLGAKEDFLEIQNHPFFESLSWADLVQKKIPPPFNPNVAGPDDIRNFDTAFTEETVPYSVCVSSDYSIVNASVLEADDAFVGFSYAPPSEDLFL
Chain of PAK4 (O96013 whole entry, species assumed): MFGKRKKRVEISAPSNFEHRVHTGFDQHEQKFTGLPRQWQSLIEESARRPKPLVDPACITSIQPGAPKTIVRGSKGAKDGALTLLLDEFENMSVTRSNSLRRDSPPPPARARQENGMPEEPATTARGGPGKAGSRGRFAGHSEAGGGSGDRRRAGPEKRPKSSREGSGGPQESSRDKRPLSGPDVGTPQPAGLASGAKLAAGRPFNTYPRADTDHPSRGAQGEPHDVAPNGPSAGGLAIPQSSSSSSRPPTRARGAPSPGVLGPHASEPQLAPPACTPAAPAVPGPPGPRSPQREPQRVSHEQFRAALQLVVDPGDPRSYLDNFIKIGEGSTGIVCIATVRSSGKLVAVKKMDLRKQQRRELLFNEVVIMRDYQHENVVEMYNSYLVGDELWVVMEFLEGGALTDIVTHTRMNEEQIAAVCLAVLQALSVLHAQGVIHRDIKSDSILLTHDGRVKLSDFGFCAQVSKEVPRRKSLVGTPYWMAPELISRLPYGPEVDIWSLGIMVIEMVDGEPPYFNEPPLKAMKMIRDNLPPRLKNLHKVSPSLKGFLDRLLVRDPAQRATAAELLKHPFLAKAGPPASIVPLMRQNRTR
Chain of IKKA (O15111 whole entry, species assumed): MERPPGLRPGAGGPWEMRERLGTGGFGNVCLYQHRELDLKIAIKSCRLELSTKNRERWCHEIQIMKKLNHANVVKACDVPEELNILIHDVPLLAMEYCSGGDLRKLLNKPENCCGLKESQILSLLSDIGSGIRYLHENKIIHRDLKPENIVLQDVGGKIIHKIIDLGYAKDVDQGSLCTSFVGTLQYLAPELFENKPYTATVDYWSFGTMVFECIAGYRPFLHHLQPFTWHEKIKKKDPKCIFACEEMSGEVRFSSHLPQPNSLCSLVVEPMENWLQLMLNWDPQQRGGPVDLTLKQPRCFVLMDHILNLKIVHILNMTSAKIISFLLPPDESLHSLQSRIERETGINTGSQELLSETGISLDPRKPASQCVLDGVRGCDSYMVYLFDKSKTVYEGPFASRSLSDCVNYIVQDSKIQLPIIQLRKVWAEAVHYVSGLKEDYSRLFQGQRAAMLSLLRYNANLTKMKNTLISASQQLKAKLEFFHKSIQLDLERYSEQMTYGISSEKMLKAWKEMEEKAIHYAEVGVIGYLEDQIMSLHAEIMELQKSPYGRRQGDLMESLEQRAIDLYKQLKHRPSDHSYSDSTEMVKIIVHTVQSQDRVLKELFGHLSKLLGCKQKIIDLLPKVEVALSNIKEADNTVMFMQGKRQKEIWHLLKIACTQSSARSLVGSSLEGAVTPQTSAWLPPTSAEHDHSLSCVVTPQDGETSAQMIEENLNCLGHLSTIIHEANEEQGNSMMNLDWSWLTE
Chain of IKKB (O14920 whole entry, species assumed): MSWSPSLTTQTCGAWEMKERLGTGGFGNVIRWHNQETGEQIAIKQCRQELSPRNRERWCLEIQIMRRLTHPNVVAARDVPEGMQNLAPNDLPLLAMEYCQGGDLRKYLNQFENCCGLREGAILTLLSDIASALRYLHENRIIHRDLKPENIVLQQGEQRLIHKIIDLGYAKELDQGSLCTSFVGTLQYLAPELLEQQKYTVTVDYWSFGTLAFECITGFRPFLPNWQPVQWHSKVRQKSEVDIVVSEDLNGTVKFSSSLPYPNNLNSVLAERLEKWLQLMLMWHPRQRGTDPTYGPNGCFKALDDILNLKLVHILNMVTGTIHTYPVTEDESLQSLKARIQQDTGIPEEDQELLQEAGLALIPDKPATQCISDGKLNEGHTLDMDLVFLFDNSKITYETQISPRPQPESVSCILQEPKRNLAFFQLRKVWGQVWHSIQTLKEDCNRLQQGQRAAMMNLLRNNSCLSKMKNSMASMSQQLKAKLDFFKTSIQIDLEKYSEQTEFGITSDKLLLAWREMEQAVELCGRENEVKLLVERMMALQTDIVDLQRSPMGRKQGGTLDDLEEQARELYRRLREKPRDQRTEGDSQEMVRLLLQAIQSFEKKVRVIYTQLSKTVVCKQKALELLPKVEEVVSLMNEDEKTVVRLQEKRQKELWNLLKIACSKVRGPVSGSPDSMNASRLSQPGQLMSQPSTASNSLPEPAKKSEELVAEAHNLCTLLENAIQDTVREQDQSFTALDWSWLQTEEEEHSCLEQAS
Chain of TRKA (P04629 33-796, species assumed): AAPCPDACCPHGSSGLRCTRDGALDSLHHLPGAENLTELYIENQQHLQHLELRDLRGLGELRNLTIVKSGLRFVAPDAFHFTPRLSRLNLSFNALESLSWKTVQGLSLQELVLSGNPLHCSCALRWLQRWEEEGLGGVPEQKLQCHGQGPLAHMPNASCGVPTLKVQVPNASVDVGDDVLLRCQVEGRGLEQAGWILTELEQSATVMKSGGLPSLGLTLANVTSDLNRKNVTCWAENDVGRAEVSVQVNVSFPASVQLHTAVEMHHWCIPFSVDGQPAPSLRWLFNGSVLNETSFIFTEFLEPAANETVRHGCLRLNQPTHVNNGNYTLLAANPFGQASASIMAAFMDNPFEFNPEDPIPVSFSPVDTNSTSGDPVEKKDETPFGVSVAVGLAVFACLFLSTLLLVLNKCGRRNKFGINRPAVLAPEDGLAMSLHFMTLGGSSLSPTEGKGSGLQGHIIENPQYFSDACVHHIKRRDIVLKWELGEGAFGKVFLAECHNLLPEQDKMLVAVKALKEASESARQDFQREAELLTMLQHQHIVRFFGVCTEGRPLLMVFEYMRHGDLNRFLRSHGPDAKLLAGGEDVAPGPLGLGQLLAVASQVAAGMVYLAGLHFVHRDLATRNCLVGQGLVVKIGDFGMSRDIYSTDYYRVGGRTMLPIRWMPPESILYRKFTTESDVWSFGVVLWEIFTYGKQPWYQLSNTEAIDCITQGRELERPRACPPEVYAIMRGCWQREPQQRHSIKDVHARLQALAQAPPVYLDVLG
Chain of MSSK1 (Q9UPE1 whole entry, species assumed): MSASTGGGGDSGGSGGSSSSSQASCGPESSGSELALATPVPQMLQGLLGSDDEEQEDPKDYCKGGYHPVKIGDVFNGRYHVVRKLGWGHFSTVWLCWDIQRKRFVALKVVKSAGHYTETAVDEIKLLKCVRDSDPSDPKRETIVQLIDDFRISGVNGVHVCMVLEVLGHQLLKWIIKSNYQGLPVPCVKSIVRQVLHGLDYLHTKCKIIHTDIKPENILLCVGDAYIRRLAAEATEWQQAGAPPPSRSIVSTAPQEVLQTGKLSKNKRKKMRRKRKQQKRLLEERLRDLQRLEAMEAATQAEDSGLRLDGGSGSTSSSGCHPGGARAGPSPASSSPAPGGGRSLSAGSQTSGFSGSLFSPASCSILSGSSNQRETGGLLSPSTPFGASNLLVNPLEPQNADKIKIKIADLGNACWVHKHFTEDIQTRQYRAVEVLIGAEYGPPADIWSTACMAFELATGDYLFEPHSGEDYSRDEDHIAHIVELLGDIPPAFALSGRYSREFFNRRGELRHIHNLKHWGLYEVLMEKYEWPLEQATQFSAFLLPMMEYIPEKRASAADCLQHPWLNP

Compound: CCN1C(=O)N(c2c(F)c(OC)cc(OC)c2F)Cc2cnc3[nH]c(CN4CCOCC4)cc3c21 [INCB054828, pemigatinib]
- IC50 (LRRK2): > 10 µM
- IC50 (ERBB4): > 10 µM
- IC50 (IKKA): > 10 µM
- clearance (Pharmacokinetic analyses; Sprague Dawley, plasma, intravenous 1 mg/kg): 17.2 mL/min/kg
- Vd (Pharmacokinetic analyses; Sprague Dawley, plasma, intravenous 1 mg/kg, read-out: Vss): 1.85 L/kg
- half-life (Pharmacokinetic analyses; Sprague Dawley, plasma, intravenous 1 mg/kg, read-out: t½ (converted)): 4 h
- Cmax (Pharmacokinetic analyses; [5]): 2260 nM
- bioavailability (Pharmacokinetic analyses; [5]): > 100%
- Hepatic ER (Pharmacokinetic analyses; intravenous 1 mg/kg, % of hepatic blood flow): 31%
- %F (Pharmacokinetic analyses; oral 2 mg/kg): complete
- AUC (Pharmacokinetic analyses; oral 2 mg/kg): 7.67 µM·h
- IC50 (RSK2): > 10 µM
- IC50 (PKCD): > 10 µM
- IC50 (TIE2): > 10 µM
- IC50 (PAK4): > 10 µM
- IC50 (AXL): > 10 µM
- GI50 [1]: 0.003 ± 0.001 µM
- GI50 (UMUC3): > 5 µM
- IC50 (SGK3): > 10 µM
- liver toxicity and changes in blood pressure [2]: not observed
- IC50 (CHEK1): > 10 µM
- IC50 (MSSK1): > 10 µM
- IC50 (FAK): > 10 µM
- IC50 [3]: 0.801 µM
- IC50 (IKKB): > 10 µM
- IC50 (BTK): > 10 µM
- GI50 (KG1): 0.001 µM
- IC50 (MAPKAPK2): > 10 µM
- GI50 (A549): > 5 µM
- IC50 (CDK2): > 10 µM
- fraction unbound at 2 h, 1 μM [4]: 0.082
- GI50 (KMS-11 (myeloma)): 0.362 ± 0.282 µM
- IC50 (PRKAA1): > 10 µM
- IC50 (TRKA): > 10 µM
